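In this assay, cells in 96-well plates receive the compound at five concentrations for 48 hours. Endpoints are linearly interpolated between the surrounding concentrations. Here, GI50 denotes the concentration required for 50% inhibition of growth.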 Calls of active or inactive are those of the source. Cut-off read from the data, not from the text of the source: active = GI50 up to about 1.1 µM and inactive = higher.
How the values were obtained:
Assay in all cases: growth of human tumour cells (NCI), 48 h
RXF 393 = test system: RXF 393
SK-MEL-2 = test system: SK-MEL-2
COLO 205 = test system: COLO 205
M14 = test system: M14
SN12C = test system: SN12C
MDA-N = test system: MDA-N
SR = test system: SR
MOLT-4 = test system: MOLT-4
KM12 = test system: KM12
MDA-MB-435 = test system: MDA-MB-435
Hs-578T = test system: Hs-578T
OVCAR-8 = test system: OVCAR-8
CAKI-1 = test system: CAKI-1
U-251 = test system: U-251
OVCAR-5 = test system: OVCAR-5
ACHN = test system: ACHN
SK-OV-3 = test system: SK-OV-3
UO-31 = test system: UO-31
OVCAR-4 = test system: OVCAR-4

Measured: GI50

COc1cccc(C2c3cc4c(cc3OC(NNc3ccccc3)C2C)OCO4)c1O (stereo not drawn)
inactive: RXF 393 12.9 µM | SK-MEL-2 8.55 µM | COLO 205 8.75 µM | M14 2.92 µM | SN12C 11.2 µM | MDA-N 2.14 µM | SR 1.87 µM | MOLT-4 4.17 µM | KM12 2.38 µM | MDA-MB-435 2.59 µM | Hs-578T 11.9 µM | OVCAR-8 2.47 µM | CAKI-1 3.1 µM | U-251 5.61 µM | OVCAR-5 9.38 µM | ACHN 1.5 µM | SK-OV-3 21.9 µM | UO-31 3.32 µM

Cc1c(C)c2c(c(N)c1C#N)C(=O)N(OS(=O)(=O)c1ccccc1)C2=O
inactive: RXF 393 15.2 µM | SK-MEL-2 49 µM | COLO 205 21.8 µM | M14 19.5 µM | OVCAR-4 21.2 µM | SN12C 23.7 µM | MDA-N 29.8 µM | SR 27 µM | MOLT-4 21.4 µM | KM12 64.9 µM | MDA-MB-435 19 µM | Hs-578T 34.8 µM | OVCAR-8 17.8 µM | CAKI-1 20.8 µM | U-251 20.5 µM | OVCAR-5 > 100 µM | ACHN 18.5 µM | UO-31 33.7 µM

CC1CCCc2c(-c3ccc(Cl)cc3)nc(N)c(C#N)c21 (stereo not drawn)
inactive: RXF 393 27.2 µM | SK-MEL-2 18.4 µM | COLO 205 23.2 µM | M14 30 µM | SN12C 41.4 µM | MDA-N 24 µM | SR 9.84 µM | MOLT-4 20 µM | KM12 20.2 µM | MDA-MB-435 30.1 µM | Hs-578T 28.3 µM | OVCAR-8 24.6 µM | CAKI-1 58.2 µM | U-251 39.9 µM | OVCAR-5 43 µM | ACHN 38.5 µM | SK-OV-3 23.9 µM | UO-31 21.6 µM

Cc1nc2ccc(Cl)cc2c(Cl)c1CCCl
inactive: RXF 393 > 100 µM | SK-MEL-2 29.6 µM | COLO 205 57.3 µM | M14 31 µM | SN12C 39.5 µM | MDA-N 8.15 µM | SR 34.4 µM | MOLT-4 15.6 µM | KM12 30.8 µM | MDA-MB-435 8.36 µM | Hs-578T 38.1 µM | OVCAR-8 62.4 µM | CAKI-1 54 µM | U-251 45.9 µM | OVCAR-5 38.5 µM | ACHN > 100 µM | SK-OV-3 > 100 µM | UO-31 42.2 µM

CC(=O)OCC(OC(C)=O)C(OC(C)=O)C(/C=N\Nc1nc2ccccc2c(=O)[nH]1)=N\Nc1nc2ccccc2c(=O)[nH]1 (stereo not drawn)
inactive: RXF 393 > 100 µM | SK-MEL-2 > 100 µM | COLO 205 > 100 µM | M14 > 100 µM | SN12C > 100 µM | MDA-N > 100 µM | SR 63.8 µM | MOLT-4 > 100 µM | KM12 4.68 µM | MDA-MB-435 > 100 µM | Hs-578T > 100 µM | OVCAR-8 > 100 µM | CAKI-1 > 100 µM | U-251 > 100 µM | OVCAR-5 > 100 µM | ACHN > 100 µM | SK-OV-3 > 100 µM | UO-31 > 100 µM

CC1C2CC(CC2(C)O)C1(C)C (stereo not drawn)
inactive: RXF 393 > 100 µM | COLO 205 > 100 µM | M14 > 100 µM | OVCAR-4 > 100 µM | SN12C > 100 µM | MDA-N > 100 µM | SR > 100 µM | MOLT-4 > 100 µM | KM12 > 100 µM | MDA-MB-435 > 10 µM | Hs-578T > 100 µM | OVCAR-8 > 100 µM | CAKI-1 > 100 µM | U-251 > 100 µM | OVCAR-5 > 100 µM | ACHN > 100 µM | SK-OV-3 > 100 µM | UO-31 > 100 µM

From ChEMBL document CHEMBL1201862, “PubChem BioAssay data set” (2004)
